US4740501A (priority 1985, dated 1988)

Assays:
MJY-alpha monolayers = format: cell-based
L-1210 leukemia = experiment: In vivo therapy of mice inoculated intraperitoneally with L-1210 leukemia; set-up: species or system DBA/2 mice
spontaneous leukemia = experiment: Treatment of spontaneous leukemia in AKR mice; format: in vivo
Excerpt: Leukemia in AKR mice, which is the result of the oncogenic activity of the endogenous Gross leukemia virus, has been effectively used as a model for human leukemias in the studies of tumor biology, chemotherapy, and chemoimmunotherapy. There is considerable evidence that leukemia in the AKR mice mimics human leukemias in many respects, and it is probable that AKR leukemia is analogous to human acute T-cell lymphocytic leukemia. Leukemic cells first appear in the thymus of mice at 6 to 12 months of age. Controlling this disease is formidable, since the cure or long range control of spontaneous leukemia in AKR mice require the therapeutic eradication of virtually all of the oncogenic cells. The time lapse between the first appearance of viable lymphoma cells in the thymus and the clinical diagnosis is about 30 days.
The effectiveness of the tripeptide compound in the treatment of spontaneous leukemia in AKR mice was tested. The clinical diagnosis of spontaneous leukemia in AKR mice was made with 95% accuracy by splenic and lymph node palpation, followed by leukocyte count. There is good evidence that at the time of clinical diagnosis there are 0.6-1.8×10^9 widely disseminated lymphoma cells in AKR mice. Without cytoreductive therapy, AKR mice die after diagnosis of spontaneous leukemia at the rate of 50% by 14 days, 90% by 33 days, and 96% by 56 days. […] Reduction of thymus and spleen weights to normal is indicative of eradication of the primary tumor. Leukemic AKR mice receiving either treatment sustained a mean survival time of 200% and 100%, respectively. It is also important and significant that the tripeptide compound treatment provides good sustainment since 30% of the treated animals in either group were alive after the onset on the therapy (FIG. 6).

ALL (N cell leukemia) = experiment: Survival of fresh human leukemic cells, continuous exposure; format: cell-based; details: for % tumor cell survival: ALL
P HR-1 B-lymphoma = experiment: Tumor cell survival (trypan blue), continuous exposure; format: cell-based, Human
MMTV = format: cell-based, mouse
B-16 melanoma cells = experiment: Bioassay of tumorigenicity of in vitro treated tumor cells in syngeneic hosts; format: in vivo, C57BL/6 mice; details: for MEAN SURVIVAL TIME (MST) of recipients: control 28
Excerpt: Suspensions of untreated and tripeptide treated MJY-alpha mammary tumor, B-16 melanoma, and L-1210 leukemia cells were adjusted to a concentration of 1×10^7 cells/ml based on the initial tumor cell concentration before the tripeptide exposure. Tumor cells were inoculated into syngeneic hosts at a concentration of 1×10^6 cells in […]. Female BALB/c/Crgl recipients of MJY-alpha mammary tumor cells and male C57BL/6/Jx hosts receiving B16 melanoma cells were inoculated subcutaneously; BDf1 mice were given intraperitoneal injections of L-1210 cells. Subcutaneous tumors were measured along their long and short axes every 1 to 3 days; tumor size is reported as the product of the two measurements (mm^2). The examination periods for mice receiving L-1210, MJY-alpha and B-16 tumor grafts were 45, 80, and 85 days, respectively. All mice were autopsied at the time of death or sacrifice.

[1] = single dose 10, 15, and 20 mg/kg 48 hours after inoculation

CCOC(=O)[C@H](CCSC)NC(=O)[C@H](Cc1cccc(N(CCCl)CCCl)c1)NC(=O)[C@@H](N)Cc1ccc(F)cc1.Cl [PTT.119, 3-(p-fluorophenyl)-L-alanyl-3-[m-bis(2-chloroethyl)aminophenyl]-L-alanyl-L-methionine ethyl ester hydrochloride]
reduction of viability of tumor cell layers compared to solvent (MJY-alpha monolayers): 15-20% | mean survival time (L-1210 leukemia; single dose 10, 15, and 20 mg/kg 48 hours after 10^6 L-1210 cells i.p., from 8 days): 30 days | apparent cure, share of treated animals (L-1210 leukemia; [1]): 30% | increase of the mean survival time (L-1210 leukemia; [1]): 275% | mean survival time (spontaneous leukemia; 5 mg per kg on days 1, 4, 7, 21, and 42): 100% | mean survival time (spontaneous leukemia; 10 mg per kg on days 1 and 14): 200% | leukemic thymus and spleen weights (spontaneous leukemia; after chemotherapy, either regimen): Significant reductions | treated animals alive after the onset of therapy (spontaneous leukemia; either treatment group): 30% | reduction of cell survival (ALL (N cell leukemia); ALL lymphoblasts, as low as 1 ug): 75% | % tumor cell survival (ALL (N cell leukemia); 1 ug/ml, 1 hr): 98% | % tumor cell survival (ALL (N cell leukemia); 1 ug/ml, 4 hr): 76% | % tumor cell survival (ALL (N cell leukemia); 1 ug/ml, 24 hr): 25% | % tumor cell survival (ALL (N cell leukemia); 5 ug/ml, 1 hr): 46% | % tumor cell survival (ALL (N cell leukemia); 5 ug/ml, 4 hr): 29% | % tumor cell survival (ALL (N cell leukemia); 5 ug/ml, 24 hr): 7% | % tumor cell survival (ALL (N cell leukemia); 10 ug/ml, 1 hr): 32% | % tumor cell survival (ALL (N cell leukemia); 10 ug/ml, 4 hr): 15% | % tumor cell survival (ALL (N cell leukemia); 10 ug/ml, 24 hr): 0% | % tumor cell survival (ALL (N cell leukemia); 25 ug/ml, 1 hr): 15% | % tumor cell survival (ALL (N cell leukemia); 25 ug/ml, 4 hr): 15% | % tumor cell survival (ALL (N cell leukemia); 25 ug/ml, 24 hr): 0% | % tumor cell survival (ALL (N cell leukemia); 50 ug/ml, 1 hr): 0% | % tumor cell survival (ALL (N cell leukemia); 50 ug/ml, 4 hr): 0% | % tumor cell survival (ALL (N cell leukemia); 50 ug/ml, 24 hr): 0% | % tumor cell survival (P HR-1 B-lymphoma; 10 ug/ml, 1 hr): 96% | % tumor cell survival (P HR-1 B-lymphoma; 10 ug/ml, 4 hr): 91% | % tumor cell survival (P HR-1 B-lymphoma; 10 ug/ml, 24 hr): 75% | % tumor cell survival (P HR-1 B-lymphoma; 25 ug/ml, 1 hr): 92% | % tumor cell survival (P HR-1 B-lymphoma; 25 ug/ml, 4 hr): 86% | % tumor cell survival (P HR-1 B-lymphoma; 25 ug/ml, 24 hr): 69% | % tumor cell survival (P HR-1 B-lymphoma; 50 ug/ml, 1 hr): 93% | % tumor cell survival (P HR-1 B-lymphoma; 50 ug/ml, 4 hr): 75% | % tumor cell survival (P HR-1 B-lymphoma; 50 ug/ml, 24 hr): 60% | less MMTV produced compared to controls (labeled uridine) (MMTV): 37% | reduction of MMTV replication (MMTV): 27% | reduction of viral replication (labeled uridine) (MMTV): 42% | tumor growth in recipients (B-16 melanoma cells; 10^6 B-16 cells treated with 25 ug or higher for 30 to 240 min): complete absence of tumor growth | MEAN SURVIVAL TIME (MST) of recipients (B-16 melanoma cells; B-16, 5 ug/ml, 60 min): 31 days | MEAN SURVIVAL TIME (MST) of recipients (B-16 melanoma cells; B-16, 5 ug/ml, 120 min): 33 days | MEAN SURVIVAL TIME (MST) of recipients (B-16 melanoma cells; B-16, 5 ug/ml, 240 min): 41 days | MEAN SURVIVAL TIME (MST) of recipients (B-16 melanoma cells; B-16, 10 ug/ml, 30 min): 35 days | MEAN SURVIVAL TIME (MST) of recipients (B-16 melanoma cells; B-16, 10 ug/ml, 60 min): 35 days | MEAN SURVIVAL TIME (MST) of recipients (B-16 melanoma cells; B-16, 10 ug/ml, 120 min): 35 days | MEAN SURVIVAL TIME (MST) of recipients (B-16 melanoma cells; B-16, 10 ug/ml, 240 min): 45 days | MEAN SURVIVAL TIME (MST) of recipients (B-16 melanoma cells; B-16, 25 ug/ml, 30 min): 52 days | MEAN SURVIVAL TIME (MST) of recipients (B-16 melanoma cells; B-16, 25 ug/ml, 60 min): 68 days | MEAN SURVIVAL TIME (MST) of recipients (B-16 melanoma cells; B-16, 25 ug/ml, 120 min): 65 days | initial lag period between inoculation and appearance of palpable tumors (B-16 melanoma cells; B-16, increasing dosages, 2 hr treatment): lengthened | reduction of viable tumor cell population (B-16 melanoma cells; B-16, inferred from LD100 of 100 viable cells): at least 99.9% | tumor growth rates of untreated and treated cells (B-16 melanoma cells; B-16, once graft established): identical
